Patent US7825139B2, “Compounds and methods for selective inhibition of dipeptidyl peptidase-IV” (Forest Laboratories Holdings Limited (BM), priority 2005, dated 2010)

Columns and labels:
dogs = experiment: Toxicity in dogs, escalated oral dose study; assay type: in vivo; settings: at 2.0 mg/kg, within 2-4 hours of dosing
Experimental: The 2.0 mg/kg dose of compound 19 correlated with the time above the DPP-VIII IC90 but not with the time above DPP-IX IC90. By comparison, a previously known selective inhibitor (compound 10 in U.S. patent application Ser. […]

DPP-VIII = target: T1, DPP-VIII (Homo sapiens, UniProt Q6V1X1); experiment: DPP-VIII IC50 assay (Ala-Pro AMC), selectivity versus DPP-IV; assay type: biochemical
T1 construct: The full length cDNAs for human DPP-VII, DPP-VIII, DPP-IX, and FAP were obtained from Open Biosystems; 6xHis (C); made in house
T1 sequence (Q6V1X1 whole entry): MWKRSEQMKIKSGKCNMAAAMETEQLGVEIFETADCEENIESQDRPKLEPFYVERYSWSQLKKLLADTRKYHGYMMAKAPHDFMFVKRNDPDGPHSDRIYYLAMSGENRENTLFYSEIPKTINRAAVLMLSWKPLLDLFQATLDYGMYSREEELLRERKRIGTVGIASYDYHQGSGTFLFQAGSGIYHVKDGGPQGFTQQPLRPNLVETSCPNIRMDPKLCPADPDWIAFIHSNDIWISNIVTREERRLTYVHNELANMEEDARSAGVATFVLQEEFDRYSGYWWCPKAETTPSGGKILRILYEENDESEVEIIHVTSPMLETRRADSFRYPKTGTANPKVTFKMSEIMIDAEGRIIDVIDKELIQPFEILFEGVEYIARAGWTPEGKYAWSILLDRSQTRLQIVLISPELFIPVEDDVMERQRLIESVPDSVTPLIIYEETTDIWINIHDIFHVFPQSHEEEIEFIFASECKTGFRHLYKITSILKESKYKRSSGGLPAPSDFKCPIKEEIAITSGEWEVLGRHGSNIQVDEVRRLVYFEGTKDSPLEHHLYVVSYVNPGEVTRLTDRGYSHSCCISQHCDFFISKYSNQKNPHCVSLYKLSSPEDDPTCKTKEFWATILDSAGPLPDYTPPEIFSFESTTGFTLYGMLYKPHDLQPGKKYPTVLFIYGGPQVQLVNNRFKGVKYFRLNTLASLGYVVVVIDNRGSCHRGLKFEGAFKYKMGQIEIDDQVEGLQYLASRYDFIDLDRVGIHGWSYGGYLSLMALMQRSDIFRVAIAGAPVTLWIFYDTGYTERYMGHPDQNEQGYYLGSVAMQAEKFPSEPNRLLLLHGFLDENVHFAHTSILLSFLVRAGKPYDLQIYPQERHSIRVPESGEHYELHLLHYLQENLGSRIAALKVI
From the text: The term “selectivity ratio” refers to the IC50 value generated in a biochemical assay measuring inhibition of DPP-IV compared to the IC50 value generated in a biochemical assay measuring inhibition of another DPP family member (e.g. DPP-VII, DPP-VIII, DPP-IX or FAP) whereby the ratio is obtained by dividing the IC50 value of DPP-VII, DPP-VIII, DPP-IX or FAP by the IC50 value for DPP-IV.
Materials. S9 insect cells and Sf-900 II SFM media were from Invitrogen. Anti-FLAG M2 immunoaffinity gel was from Sigma. Gly-Pro-AMC, Lys-Pro AMC, and Ala-Pro AMC were from Enzyme Systems. IC50 calculations were performed by non-linear regression analysis using Prism software (GraphPad). Preparation of DPP-VII, DPP-VIII, DPP-IX, and FAP baculovirus constructs. The full length cDNAs for human DPP-VII, DPP-VIII, DPP-IX, and FAP were obtained from Open Biosystems. […] Baculovirus was prepared using the Bac-to-Bac Baculovirus Expression System (Invitrogen). The cDNAs in the final baculovirus constructs were sequence verified. Baculovirus expression. […] Infection with DPP-VII, DPP-VIII, DPP-IX, and FAP baculoviral constructs were all performed at an MOI of 4. The infected cells were grown for 48 hours and the cell pellets harvested and frozen until purification. DPP-VII was purified using anti-FLAG immunoaffinity gel according to the manufacturer's instructions. DPP-VIII, DPP-IX, and FAP were purified using a B-PER 6xHis Fusion Protein Column Purification Kit from Pierce. IC50 assay. Recombinant DPPs were diluted in reaction buffer to give fluorescence values of 5000-20000 counts in the “enzyme only wells” 20 min after addition of substrate at 27° C. Reaction buffers were 25 mM (2-(4-Morpholino)-Ethane Sulfonic Acid), pH 5.5 for DPP-VII, 25 mM Tris, pH 8, 1% Triton X-100, 100 mM NaCl for DPP-VIII, and 25 mM Tris pH 8 for DPP-1× and FAP. Test wells in a 96-well microtiter plate contained 88 μL of diluted DPP and 2.5 ul of titrated compound in 50 mM glycine, pH 2.6. “Enzyme only” wells contained 88 uL of diluted DPP and 2.5 ul of glycine buffer. “No enzyme” wells contained 88 uL of reaction buffer without DPP and 2.5 ul of glycine buffer. All assays were done in triplicate. The plate was incubated at 27° C. for 10 min and then cooled on ice for 10 min. Ten microliters of substrate diluted in reaction buffer (40 uM final concentration) without Triton or NaCl were then added to all wells followed by incubation at 27C for 20 min. Substrates were Lys-Pro AMC for DPP-VII, and Ala-Pro AMC for DPP-VIII, DPP-IX, and FAP. Fluorescence in each well was measured at settings of 380/460 nm.

DPP-IV = target: T2, DPP-IV (Sus scrofa, UniProt P22411); experiment: DPP-IV fluorometric enzyme inhibition assay (Gly-Pro-AMC); assay type: biochemical, porcine
T2 construct: from tissue; host or cells: porcine
T2 sequence (P22411 whole entry): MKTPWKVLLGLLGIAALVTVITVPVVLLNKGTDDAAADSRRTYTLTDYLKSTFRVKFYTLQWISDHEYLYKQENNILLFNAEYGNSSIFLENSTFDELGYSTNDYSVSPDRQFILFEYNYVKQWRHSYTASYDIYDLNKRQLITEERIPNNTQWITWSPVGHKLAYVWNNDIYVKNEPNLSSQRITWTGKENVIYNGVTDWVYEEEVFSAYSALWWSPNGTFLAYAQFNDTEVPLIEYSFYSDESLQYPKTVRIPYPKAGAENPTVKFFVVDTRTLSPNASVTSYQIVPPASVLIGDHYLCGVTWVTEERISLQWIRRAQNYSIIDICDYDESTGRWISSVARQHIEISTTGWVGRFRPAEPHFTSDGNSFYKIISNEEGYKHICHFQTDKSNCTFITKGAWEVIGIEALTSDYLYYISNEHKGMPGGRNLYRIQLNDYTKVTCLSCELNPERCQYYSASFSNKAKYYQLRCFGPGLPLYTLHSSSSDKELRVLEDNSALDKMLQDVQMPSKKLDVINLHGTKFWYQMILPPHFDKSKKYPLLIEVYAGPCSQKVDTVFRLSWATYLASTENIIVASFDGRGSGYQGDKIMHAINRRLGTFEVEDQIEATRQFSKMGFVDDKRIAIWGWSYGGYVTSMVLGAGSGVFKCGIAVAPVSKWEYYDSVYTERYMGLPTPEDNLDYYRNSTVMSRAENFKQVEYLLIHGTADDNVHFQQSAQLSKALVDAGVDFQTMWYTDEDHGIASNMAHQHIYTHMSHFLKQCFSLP
Experimental: The following methods were used to measure the activities of the compounds of the invention which inhibit the enzymatic activity of DPP-IV. The compounds of the invention are tested for their ability to inhibit the enzyme activity of purified DPP-IV. Briefly, the activity of DPP-IV is measured in vitro by its ability to cleave the synthetic substrate Gly-Pro-AMC. Cleavage of Gly-Pro-AMC by DPP-IV liberates the product AMC (7-amino-4-methyl coumarin), whose rate of appearance is directly proportional to the enzyme activity. Inhibition of the enzyme activity by specific enzyme inhibitors slows down the generation of AMC. […] The accumulation of AMC is measured fluorometrically. […]
Thus, DPP-IV enzyme activity was determined by a fluorometric assay with the substrate Gly-Pro-AMC which is cleaved by DPP-IV to release the fluorescent AMC leaving group. Free AMC (7-amino-4-methyl coumarin) was measured using an excitation wavelength of 380 nm and an emission wavelength of 460 nm with a Victor-II fluorescent reader. […] After 10-minutes substrate was added (10 μl) and allowed to react for 20-minutes at 26° C. before free AMC was measured. IC50 values were determined in triplicate, using a minimum of six different inhibitor concentrations. IC50 values were calculated using Nonlinear Regression Analysis (GraphPad, Prism, San Diego, Calif.). […]

## O=C(CNC1CCCC1)N1CCC[C@H]1B(O)O [Compound 19]
dogs
  toxicity in dogs: severe emesis and diarrhea
DPP-VIII
  inhibition of DPP-VIII (in words): potent inhibitor
DPP-IV
  inhibition of DPP-IV (in words): potent inhibitor
